Source: US10357493B2, “Metalloenzyme inhibitor compounds” (Selenity Therapeutics (Bermuda), Ltd., priority 2017, dated 2019)

Experiments:
[1] = biological target: HDAC1 (Homo sapiens (Human), UniProt Q13547); assay: HDAC1 enzymatic assay; type: biochemical; conditions: read-out: Human HDAC1 IC50
Method: (§1) All enzymatic reactions were conducted in duplicate at room temperature for 17 hours in a 50 μl mixture containing HDAC assay buffer (50 mM Tris-HCl, pH 7.4, 137 mM NaCl, 2.7 mM KCl, 0.05% Tween 20, 5 μg BSA), an HDAC substrate, an HDAC enzyme, and a test compound. Compound dilution was prepared ten-fold higher than the final concentration of the compounds with 10% DMSO in HDAC assay buffer and 5 μl of the dilution was added to a 50 μl reaction so that the final concentration of DMSO is 1% in all of reactions. After enzymatic reactions, 50 μl of HDAC Developer was added to each well and the plate was incubated at room temperature for an additional 20 minutes. Fluorescence intensity was measured at an excitation of 360 nm and an emission of 460 nm using a Tecan Infinite M1000 or Biotek Synergy microplate reader.
(§2) The fluorescent intensity data were analyzed using the computer software, Graphpad Prism. In the absence of the compound, the fluorescent intensity (Ft) in each data set was defined as 100% activity. In the absence of HDAC, the fluorescent intensity (Fb) in each data set was defined as 0% activity. The percent activity in the presence of each compound was calculated according to the following equation: % activity=(F−Fb)/(Ft−Fb), where F=the fluorescent intensity in the presence of the compound.
(§3) The values of % activity versus a series of compound concentrations were then plotted using non-linear regression analysis of Sigmoidal dose-response curve generated with the equation Y=B+(T−B)/1+10((Log EC50−X)×Hill Slope), where Y=percent activity, B=minimum percent activity, T=maximum percent activity, X=logarithm of compound and Hill Slope=slope factor or Hill coefficient. The IC50 value was determined by the concentration causing a half-maximal percent activity.
(§4) HDAC1 enzymatic assays contained 0.5 ng HDAC1 and 10 uM of HDAC substrate. HDAC2 enzymatic assays contained 0.5 ng HDAC2 and 10 uM of HDAC substrate. HDAC3 enzymatic assays contained 0.4 ng HDAC3/NCOR2 and 10 uM of HDAC substrate. HDAC4 enzymatic assays contained 0.02 ng HDAC4 and 2 uM of HDAC substrate. HDAC5 enzymatic assays contained 0.5 ng HDAC5 and 2 uM of HDAC substrate. HDAC6 enzymatic assays contained 2 ng HDAC6 and 10 uM of HDAC substrate. HDAC7 enzymatic assays contained 0.05 ng HDAC7 and 2 uM of HDAC substrate. HDAC8 enzymatic assays contained 5 ng HDAC8 and 2 uM of HDAC substrate. HDAC9 enzymatic assays contained 1 ng HDAC9 and 2 uM of HDAC substrate. HDAC10 enzymatic assays contained 75 ng HDAC10 and 10 uM of HDAC substrate. HDAC11 enzymatic assays contained 5 ng HDAC11 and 2 uM of HDAC substrate.

[2] = biological target: HDAC6 (Homo sapiens (Human), UniProt Q9UBN7); assay: HDAC6 enzymatic assay; type: biochemical; conditions: read-out: Human HDAC6 IC50
HDAC6, sequence (Q9UBN7 whole entry): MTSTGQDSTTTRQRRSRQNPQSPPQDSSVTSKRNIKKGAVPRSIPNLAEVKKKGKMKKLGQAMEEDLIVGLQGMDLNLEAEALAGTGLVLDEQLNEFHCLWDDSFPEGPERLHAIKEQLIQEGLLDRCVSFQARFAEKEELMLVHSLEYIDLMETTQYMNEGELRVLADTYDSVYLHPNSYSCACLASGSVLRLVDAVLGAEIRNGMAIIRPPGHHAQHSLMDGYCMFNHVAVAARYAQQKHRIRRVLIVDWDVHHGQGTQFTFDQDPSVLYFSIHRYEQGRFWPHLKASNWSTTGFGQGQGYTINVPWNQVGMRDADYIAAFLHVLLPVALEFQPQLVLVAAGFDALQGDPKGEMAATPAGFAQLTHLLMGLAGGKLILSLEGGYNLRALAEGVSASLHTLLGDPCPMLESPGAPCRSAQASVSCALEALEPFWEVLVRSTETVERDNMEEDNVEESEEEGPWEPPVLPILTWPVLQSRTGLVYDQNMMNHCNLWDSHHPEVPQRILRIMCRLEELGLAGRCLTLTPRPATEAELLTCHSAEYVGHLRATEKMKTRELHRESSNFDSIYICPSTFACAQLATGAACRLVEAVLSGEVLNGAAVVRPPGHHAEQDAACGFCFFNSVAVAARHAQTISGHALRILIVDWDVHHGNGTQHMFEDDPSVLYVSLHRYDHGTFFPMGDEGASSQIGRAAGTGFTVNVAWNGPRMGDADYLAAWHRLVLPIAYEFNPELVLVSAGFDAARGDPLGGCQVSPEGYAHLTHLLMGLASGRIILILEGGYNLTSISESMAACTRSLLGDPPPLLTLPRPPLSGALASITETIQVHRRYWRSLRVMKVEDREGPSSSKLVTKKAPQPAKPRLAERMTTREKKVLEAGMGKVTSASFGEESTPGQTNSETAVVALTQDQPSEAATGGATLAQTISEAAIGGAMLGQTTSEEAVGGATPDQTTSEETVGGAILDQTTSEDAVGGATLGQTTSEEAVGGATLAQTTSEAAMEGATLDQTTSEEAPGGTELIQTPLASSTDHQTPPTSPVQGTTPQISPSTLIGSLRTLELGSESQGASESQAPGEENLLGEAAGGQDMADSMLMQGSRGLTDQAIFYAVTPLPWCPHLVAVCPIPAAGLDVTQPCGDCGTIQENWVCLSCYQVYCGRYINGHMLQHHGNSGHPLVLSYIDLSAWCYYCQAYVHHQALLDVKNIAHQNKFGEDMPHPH
Method: as §1, §2, §3, §4

HDAC1, sequence (Q13547 whole entry): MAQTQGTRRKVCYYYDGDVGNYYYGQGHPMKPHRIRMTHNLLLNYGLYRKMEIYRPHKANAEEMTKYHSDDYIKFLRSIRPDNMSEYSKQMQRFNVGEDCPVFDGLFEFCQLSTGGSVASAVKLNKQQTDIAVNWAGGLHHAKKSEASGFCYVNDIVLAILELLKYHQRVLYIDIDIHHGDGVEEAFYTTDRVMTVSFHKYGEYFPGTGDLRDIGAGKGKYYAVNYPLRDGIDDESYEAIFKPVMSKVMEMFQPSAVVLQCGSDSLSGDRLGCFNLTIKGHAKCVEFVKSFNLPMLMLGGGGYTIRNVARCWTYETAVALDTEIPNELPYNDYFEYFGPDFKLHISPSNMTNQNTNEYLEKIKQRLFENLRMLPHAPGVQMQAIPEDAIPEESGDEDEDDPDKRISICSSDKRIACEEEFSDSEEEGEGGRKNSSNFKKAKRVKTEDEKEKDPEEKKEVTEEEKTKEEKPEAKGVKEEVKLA

Structure (SMILES) | IC50 [1] [µM] | IC50 [2] [µM]
Fc1ccc(C(Cn2cnc(C(F)(F)F)c2)Nc2ncc(-c3nnc(C(F)F)o3)cn2)cc1 (single isomer, unassigned) [175(−), 5-(5-(difluoromethyl)-1,3,4-oxadiazol-2-yl)-N-(1-(4-fluorophenyl)-2-(4-(trifluoromethyl)-1H-imidazol-1-yl)ethyl)pyrimidin-2-amine] | > 30 | 1.5
Fc1ccc(C(CC(F)(F)F)Nc2ncc(-c3nnc(C(F)F)o3)cn2)c(F)c1 (single isomer, unassigned) [101(+)] | > 30 | 0.022
CS(=O)(=O)N(CC(Nc1ncc(-c2nnc(C(F)F)o2)cn1)c1ccc(OC(F)F)cc1F)CC(F)(F)F (stereo not drawn) [146(+), N-(2-(4-(difluoromethoxy)-2-fluorophenyl)-2-((5-(5-(difluoromethyl)-1,3,4-oxadiazol-2-yl)pyrimidin-2-yl)amino)ethyl)-N-(2,2,2-trifluoroethyl)methanesulfonamide] | > 30 | 0.14
CC(Nc1ncc(-c2nnc(C(F)F)o2)cn1)c1ccc(F)cc1 (single isomer, unassigned; (-)) [20(−), (−)-5-(5-(difluoromethyl)-1,3,4-oxadiazol-2-yl)-N-(1-(4-fluorophenyl)ethyl)pyrimidin-2-amine] | > 30 | > 1
CS(=O)(=O)CC(Nc1ncc(-c2nnc(C(F)F)o2)cn1)c1ccc(F)cc1 (single isomer, unassigned) [161(−), 5-(5-(difluoromethyl)-1,3,4-oxadiazol-2-yl)-N-(1-(4-fluorophenyl)-2-(methylsulfonyl)ethyl)pyrimidin-2-amine] | > 30 | 0.87
Fc1ccc(C(Cn2cnc(C(F)(F)F)c2)Nc2ncc(-c3nnc(C(F)F)o3)cn2)cc1 (single isomer, unassigned) [175(+), 5-(5-(difluoromethyl)-1,3,4-oxadiazol-2-yl)-N-(1-(4-fluorophenyl)-2-(4-(trifluoromethyl)-1H-imidazol-1-yl)ethyl)pyrimidin-2-amine] | > 30 | 0.16
O=S(=O)(C1CC1)N(CC(Nc1ncc(-c2nnc(C(F)F)o2)cn1)c1ccc(OC(F)F)cc1F)CC(F)(F)F (stereo not drawn) [152(+), N-(2-(4-(difluoromethoxy)-2-fluorophenyl)-2-((5-(5-(difluoromethyl)-1,3,4-oxadiazol-2-yl)pyrimidin-2-yl)amino)ethyl)-N-(2,2,2-trifluoroethyl)cyclopropanesulfonamide] | > 30 | 0.28
O=S(=O)(NCC(Nc1ncc(-c2nnc(C(F)F)o2)cn1)c1ccc(OC(F)(F)F)cc1)C1CC1 (stereo not drawn) [158(+), N-(2-((5-(5-(difluoromethyl)-1,3,4-oxadiazol-2-yl)pyrimidin-2-yl)amino)-2-(4-(trifluoromethoxy)phenyl)ethyl)cyclopropanesulfonamide] | > 30 | 0.051
CC(=O)N(CC(Nc1ncc(-c2nnc(C(F)F)o2)cn1)c1ccc(F)cc1)CC(F)(F)F (single isomer, unassigned) [167(−), N-(2-((5-(5-(difluoromethyl)-1,3,4-oxadiazol-2-yl)pyrimidin-2-yl)amino)-2-(4-fluorophenyl)ethyl)-N-(2,2,2-trifluoroethyl)acetamide] | > 30 | 0.69
CC(Nc1ncc(-c2nnc(C(F)F)o2)cn1)c1ccc(F)cc1 (single isomer, unassigned; (+)) [20(+), (+)-5-(5-(difluoromethyl)-1,3,4-oxadiazol-2-yl)-N-(1-(4-fluorophenyl)ethyl)pyrimidin-2-amine] | > 30 | 0.021
Fc1ccc(C(Cn2cc(C(F)(F)F)cn2)Nc2ncc(-c3nnc(C(F)F)o3)cn2)cc1 (single isomer, unassigned) [176(−), 5-(5-(difluoromethyl)-1,3,4-oxadiazol-2-yl)-N-(1-(4-fluorophenyl)-2-(4-(trifluoromethyl)-1H-pyrazol-1-yl)ethyl)pyrimidin-2-amine] | > 30 | 1.5
CN(CC(Nc1ncc(-c2nnc(C(F)F)o2)cn1)c1ccc(OC(F)(F)F)cc1)S(=O)(=O)C1CC1 (stereo not drawn) [159(+), N-(2-((5-(5-(difluoromethyl)-1,3,4-oxadiazol-2-yl)pyrimidin-2-yl)amino)-2-(4-(trifluoromethoxy)phenyl)ethyl)-N-methylcyclopropanesulfonamide] | > 30 | 0.09

Further lines, results first:

IC50 [1] [µM] | IC50 [2] [µM] | Structure (SMILES)
> 30 | 0.1 | FC(F)c1nnc(-c2cnc(NC3(c4ccc(OCC(F)(F)F)cc4)CC3)nc2)o1 [Example 68, 5-(5-(difluoromethyl)-1,3,4-oxadiazol-2-yl)-N-(1-(4-(2,2,2-trifluoroethoxy)phenyl)cyclopropyl) pyrimidin-2-amine]
> 30 | 0.022 | Fc1ccc(F)c(C2(Nc3ncc(-c4nnc(C(F)F)o4)cn3)CC2)c1 [Example 61, 5-(5-(difluoromethyl)-1,3,4-oxadiazol-2-yl)-N-(1-(2,5-difluorophenyl)cyclopropyl) pyrimidin-2-amine]
> 30 | 0.038 | Fc1ccc(OC(F)(F)F)cc1C1(Nc2ncc(-c3nnc(C(F)F)o3)cn2)CC1 [Example 75, 5-(5-(difluoromethyl)-1,3,4-oxadiazol-2-yl)-N-(1-(2-fluoro-5-(trifluoromethoxy)phenyl)cyclopropyl)pyrimidin-2-amine]
> 30 | 0.029 | Fc1ccc(C2(Nc3ncc(-c4nnc(C(F)F)o4)cn3)CCC2)cc1 [Example 88]
> 30 | 0.062 | FC(F)c1nnc(-c2cnc(NC3(c4cccc(C(F)(F)F)c4Cl)CC3)nc2)o1 [Example 85, N-(1-(2-chloro-3-(trifluoromethyl)phenyl)cyclopropyl)-5-(5-(difluoromethyl)-1,3,4-oxadiazol-2-yl)pyrimidin-2-amine]
> 30 | 0.022 | Fc1cccc(C2(Nc3ncc(-c4nnc(C(F)F)o4)cn3)CC2)c1F [Example 60, 5-(5-(difluoromethyl)-1,3,4-oxadiazol-2-yl)-N-(1-(2,3-difluorophenyl)cyclopropyl) pyrimidin-2-amine]
> 30 | 0.046 | N#Cc1ccc(C2(Nc3ncc(-c4nnc(C(F)F)o4)cn3)CC2)cc1 [Example 48, 4-(1-((5-(5-(difluoromethyl)-1,3,4-oxadiazol-2-yl)pyrimidin-2-yl)amino)cyclopropyl) benzonitrile]
> 30 | 0.049 | CC(NS(C)(=O)=O)C(Nc1ncc(-c2nnc(C(F)F)o2)cn1)c1ccc(F)cc1 (single isomer, unassigned) [Example 127B, N-(1-((5-(5-(difluoromethyl)-1,3,4-oxadiazol-2-yl)pyrimidin-2-yl)amino)-1-(4-fluorophenyl)propan-2-yl)methanesulfonamide]
> 100 | 0.009 | Fc1ccc(C2(Nc3ncc(-c4nnc(C(F)F)o4)cn3)CC2)c(F)c1 [Example 10, 5-(5-(difluoromethyl)-1,3,4-oxadiazol-2-yl)-N-(1-(2,4-difluorophenyl)cyclopropyl)pyrimidin-2-amine]
> 30 | 0.12 | FC(F)c1nnc(-c2cnc(NC3(c4cccc(OCC(F)(F)F)c4Cl)CC3)nc2)o1 [Example 87, N-(1-(2-chloro-3-(2,2,2-trifluoroethoxy)phenyl)cyclopropyl)-5-(5-(difluoromethyl)-1,3,4-oxadiazol-2-yl)pyrimidin-2-amine]
> 30 | 0.33 | CS(=O)(=O)Nc1ccc(CC(Nc2ncc(-c3nnc(C(F)F)o3)cn2)c2ccc(F)cc2)cc1 (centres unmarked) [Example 133, N-(4-(2-((5-(5-(difluoromethyl)-1,3,4-oxadiazol-2-yl)pyrimidin-2-yl)amino)-2-(4-fluorophenyl)ethyl)phenyl)methanesulfonamide]
> 30 | 1.7 | FC(F)c1nnc(-c2cnc(NC(c3ccccc3)c3ccccc3)nc2)o1 [Example 7, N-benzhydryl-5-(5-(difluoromethyl)-1,3,4-oxadiazol-2-yl)pyrimidin-2-amine]
> 30 | 0.044 | COc1ccc(C2(Nc3ncc(-c4nnc(C(F)F)o4)cn3)CC2)cc1 [Example 44, 5-(5-(difluoromethyl)-1,3,4-oxadiazol-2-yl)-N-(1-(4-methoxyphenyl)cyclopropyl)pyrimidin-2-amine]
